The numbers were not newly measured in patent EP1586313A1, “Pharmaceutical composition with metoclopramide and process for its preparation” (The Jordanian Pharmaceutical Manufacturing Co. Ltd., priority 2004, dated 2005), which cites them from elsewhere.

For the data set the following is noted: reportedly.

Consider `CCN(CC)CCNC(=O)c1cc(Cl)c(N)cc1OC.Cl.O` [metoclopramide, 4-amino-5-chloro-N-(2-diethylaminoethyl)-2-methoxybenzamide hydrochloride monohydrate], for which the “peak plasma metoclopramide concentrations associated with metoclopramide induced akathisia” value was “greater than 120 ng/ml”.
